Experimental data published in the supplement of paper PMC10307832.

Columns and labels:
Test in all cases: relative viability (nuclei count vs DMSO), 5 days (fraction); higher = more cells survive
NCI-H2023 = test system: NCI-H2023
Procedure, shortened: (§1)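 Relative viability was taken as the ratio of nuclei in treated wells to nuclei in vehicle wells. Lung cancer cell lines in 1536-well plates received compounds by pin tool one day after seeding, either one drug alone or a fixed anchor-drug dose plus five library-drug doses (not always all listed) in √10 steps. Nuclei were counted on 4× images after 5 days of treatment, and values are medians of duplicate plates.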

NCI-H647 = test system: NCI-H647
Procedure, shortened: as §1

H3255 = test system: H3255
Procedure, shortened: as §1

NCI-H2347 = test system: NCI-H2347
Procedure, shortened: as §1

NCI-H2085 = test system: NCI-H2085
Procedure, shortened: as §1

SK-LU-1 = test system: SK-LU-1
Procedure, shortened: as §1

PC-14 = test system: PC-14
Procedure, shortened: as §1

NCI-H727 = test system: NCI-H727
Procedure, shortened: as §1

NCI-H2009 = test system: NCI-H2009
Procedure, shortened: as §1

NCI-H1993 = test system: NCI-H1993
Procedure, shortened: as §1

SW 1573 = test system: SW 1573
Procedure, shortened: as §1

EMC-BAC-2 = test system: EMC-BAC-2
Procedure, shortened: as §1

LXF-289 = test system: LXF-289
Procedure, shortened: as §1

NCI-H2126 = test system: NCI-H2126
Procedure, shortened: as §1

NCI-H322M = test system: NCI-H322M
Procedure, shortened: as §1

HOP-62 = test system: HOP-62
Procedure, shortened: as §1

LCLC-97TM1 = test system: LCLC-97TM1
Procedure, shortened: as §1

NCI-H1915 = test system: NCI-H1915
Procedure, shortened: as §1

EPLC-272H = test system: EPLC-272H
Procedure, shortened: as §1

NCI-H1734 = test system: NCI-H1734
Procedure, shortened: as §1

NCI-H661 = test system: NCI-H661
Procedure, shortened: as §1

**Q.** For `COc1cc2nccc(Oc3ccc(NC(=O)Nc4cc(C)on4)c(Cl)c3)c2cc1OC` [Tivozanib] + Cc1cc(Nc2cc(N3CCN(C)CC3)nc(Sc3ccc(NC(=O)C4CC4)cc3)n2)n[nH]1 [Tozasertib] (partner 0.1 µM), which relative viability (NCI-H2023; first compound 0.005 µM) is on record?
**A.** 0.306

**Q.** What about the relative viability (NCI-H2023; first compound 0.01581 µM) of the same compound?
**A.** 0.324

**Q.** And the relative viability (NCI-H2023; first compound 0.05 µM)?
**A.** 0.405

**Q.** What about the relative viability (NCI-H2023; first compound 0.1581 µM) of the same compound?
**A.** 0.4

**Q.** And the relative viability (NCI-H2023; first compound 0.5 µM)?
**A.** 0.413

**Q.** What about the relative viability (NCI-H647; first compound 0.005 µM) of the same compound?
**A.** 0.269

**Q.** What about the relative viability (NCI-H647; first compound 0.01581 µM) of the same compound?
**A.** 0.203

**Q.** And the relative viability (NCI-H647; first compound 0.05 µM)?
**A.** 0.263

**Q.** What about the relative viability (NCI-H647; first compound 0.1581 µM) of the same compound?
**A.** 0.332

**Q.** And the relative viability (NCI-H647; first compound 0.5 µM)?
**A.** 0.302

**Q.** What about the relative viability (H3255; first compound 0.005 µM) of the same compound?
**A.** 0.745

**Q.** What about the relative viability (H3255; first compound 0.01581 µM) of the same compound?
**A.** 0.564

**Q.** And the relative viability (H3255; first compound 0.05 µM)?
**A.** 0.626

**Q.** And the relative viability (H3255; first compound 0.1581 µM)?
**A.** 0.804

**Q.** And the relative viability (H3255; first compound 0.5 µM)?
**A.** 0.565

**Q.** And the relative viability (NCI-H2347; first compound 0.01581 µM)?
**A.** 0.54

**Q.** What about the relative viability (NCI-H2347; first compound 0.05 µM) of the same compound?
**A.** 0.594

**Q.** And the relative viability (NCI-H2347; first compound 0.5 µM)?
**A.** 0.511

**Q.** What about the relative viability (NCI-H2085; first compound 0.005 µM) of the same compound?
**A.** 0.806

**Q.** And the relative viability (NCI-H2085; first compound 0.01581 µM)?
**A.** 0.699

**Q.** And the relative viability (NCI-H2085; first compound 0.05 µM)?
**A.** 0.905

**Q.** What about the relative viability (NCI-H2085; first compound 0.1581 µM) of the same compound?
**A.** 0.985

**Q.** And the relative viability (NCI-H2085; first compound 0.5 µM)?
**A.** 0.812

**Q.** What about the relative viability (SK-LU-1; first compound 0.005 µM) of the same compound?
**A.** 0.332

**Q.** What about the relative viability (SK-LU-1; first compound 0.01581 µM) of the same compound?
**A.** 0.366

**Q.** And the relative viability (SK-LU-1; first compound 0.05 µM)?
**A.** 0.472

**Q.** And the relative viability (SK-LU-1; first compound 0.1581 µM)?
**A.** 0.357

**Q.** And the relative viability (SK-LU-1; first compound 0.5 µM)?
**A.** 0.335

**Q.** What about the relative viability (PC-14; first compound 0.005 µM) of the same compound?
**A.** 0.566

**Q.** And the relative viability (PC-14; first compound 0.01581 µM)?
**A.** 0.647

**Q.** And the relative viability (PC-14; first compound 0.05 µM)?
**A.** 0.55

**Q.** What about the relative viability (PC-14; first compound 0.1581 µM) of the same compound?
**A.** 0.615

**Q.** What about the relative viability (PC-14; first compound 0.5 µM) of the same compound?
**A.** 0.507

**Q.** And the relative viability (NCI-H727; first compound 0.005 µM)?
**A.** 0.533

**Q.** And the relative viability (NCI-H727; first compound 0.01581 µM)?
**A.** 0.649

**Q.** What about the relative viability (NCI-H727; first compound 0.05 µM) of the same compound?
**A.** 0.588

**Q.** And the relative viability (NCI-H727; first compound 0.1581 µM)?
**A.** 0.635

**Q.** And the relative viability (NCI-H727; first compound 0.5 µM)?
**A.** 0.886

**Q.** And the relative viability (NCI-H2009; first compound 0.005 µM)?
**A.** 0.708

**Q.** And the relative viability (NCI-H2009; first compound 0.01581 µM)?
**A.** 0.738

**Q.** And the relative viability (NCI-H2009; first compound 0.05 µM)?
**A.** 0.733

**Q.** What about the relative viability (NCI-H2009; first compound 0.1581 µM) of the same compound?
**A.** 0.725

**Q.** And the relative viability (NCI-H2009; first compound 0.5 µM)?
**A.** 0.759

**Q.** And the relative viability (NCI-H1993; first compound 0.005 µM)?
**A.** 0.559

**Q.** And the relative viability (NCI-H1993; first compound 0.01581 µM)?
**A.** 0.585

**Q.** What about the relative viability (NCI-H1993; first compound 0.05 µM) of the same compound?
**A.** 0.568

**Q.** And the relative viability (NCI-H1993; first compound 0.1581 µM)?
**A.** 0.485

**Q.** And the relative viability (NCI-H1993; first compound 0.5 µM)?
**A.** 0.513

**Q.** What about the relative viability (SW 1573; first compound 0.005 µM) of the same compound?
**A.** 0.165

**Q.** What about the relative viability (SW 1573; first compound 0.01581 µM) of the same compound?
**A.** 0.17

**Q.** And the relative viability (SW 1573; first compound 0.05 µM)?
**A.** 0.198

**Q.** What about the relative viability (SW 1573; first compound 0.1581 µM) of the same compound?
**A.** 0.205

**Q.** And the relative viability (SW 1573; first compound 0.5 µM)?
**A.** 0.38

**Q.** And the relative viability (EMC-BAC-2; first compound 0.005 µM)?
**A.** 0.255

**Q.** What about the relative viability (EMC-BAC-2; first compound 0.01581 µM) of the same compound?
**A.** 0.3

**Q.** What about the relative viability (EMC-BAC-2; first compound 0.05 µM) of the same compound?
**A.** 0.295

**Q.** What about the relative viability (EMC-BAC-2; first compound 0.1581 µM) of the same compound?
**A.** 0.326

**Q.** What about the relative viability (EMC-BAC-2; first compound 0.5 µM) of the same compound?
**A.** 0.266

**Q.** And the relative viability (LXF-289; first compound 0.005 µM)?
**A.** 0.173

**Q.** And the relative viability (LXF-289; first compound 0.01581 µM)?
**A.** 0.201

**Q.** What about the relative viability (LXF-289; first compound 0.05 µM) of the same compound?
**A.** 0.228

**Q.** What about the relative viability (LXF-289; first compound 0.1581 µM) of the same compound?
**A.** 0.272

**Q.** What about the relative viability (LXF-289; first compound 0.5 µM) of the same compound?
**A.** 0.23

**Q.** What about the relative viability (NCI-H2126; first compound 0.005 µM) of the same compound?
**A.** 0.804

**Q.** And the relative viability (NCI-H2126; first compound 0.01581 µM)?
**A.** 0.846

**Q.** What about the relative viability (NCI-H2126; first compound 0.05 µM) of the same compound?
**A.** 0.915

**Q.** And the relative viability (NCI-H2126; first compound 0.1581 µM)?
**A.** 0.667

**Q.** What about the relative viability (NCI-H2126; first compound 0.5 µM) of the same compound?
**A.** 0.857

**Q.** What about the relative viability (NCI-H322M; first compound 0.005 µM) of the same compound?
**A.** 0.455

**Q.** What about the relative viability (NCI-H322M; first compound 0.01581 µM) of the same compound?
**A.** 0.48

**Q.** What about the relative viability (NCI-H322M; first compound 0.05 µM) of the same compound?
**A.** 0.518

**Q.** What about the relative viability (NCI-H322M; first compound 0.1581 µM) of the same compound?
**A.** 0.395

**Q.** What about the relative viability (NCI-H322M; first compound 0.5 µM) of the same compound?
**A.** 0.479

**Q.** What about the relative viability (HOP-62; first compound 0.005 µM) of the same compound?
**A.** 0.349

**Q.** What about the relative viability (HOP-62; first compound 0.01581 µM) of the same compound?
**A.** 0.384

**Q.** What about the relative viability (HOP-62; first compound 0.05 µM) of the same compound?
**A.** 0.422

**Q.** And the relative viability (HOP-62; first compound 0.1581 µM)?
**A.** 0.391

**Q.** And the relative viability (HOP-62; first compound 0.5 µM)?
**A.** 0.362

**Q.** What about the relative viability (LCLC-97TM1; first compound 0.005 µM) of the same compound?
**A.** 0.236

**Q.** What about the relative viability (LCLC-97TM1; first compound 0.01581 µM) of the same compound?
**A.** 0.168

**Q.** What about the relative viability (LCLC-97TM1; first compound 0.05 µM) of the same compound?
**A.** 0.274

**Q.** And the relative viability (LCLC-97TM1; first compound 0.1581 µM)?
**A.** 0.357

**Q.** And the relative viability (LCLC-97TM1; first compound 0.5 µM)?
**A.** 0.197

**Q.** And the relative viability (NCI-H1915; first compound 0.005 µM)?
**A.** 0.4

**Q.** And the relative viability (NCI-H1915; first compound 0.01581 µM)?
**A.** 0.439

**Q.** And the relative viability (NCI-H1915; first compound 0.05 µM)?
**A.** 0.413

**Q.** What about the relative viability (NCI-H1915; first compound 0.1581 µM) of the same compound?
**A.** 0.511

**Q.** And the relative viability (NCI-H1915; first compound 0.5 µM)?
**A.** 0.5

**Q.** What about the relative viability (EPLC-272H; first compound 0.005 µM) of the same compound?
**A.** 0.195

**Q.** What about the relative viability (EPLC-272H; first compound 0.01581 µM) of the same compound?
**A.** 0.255

**Q.** And the relative viability (EPLC-272H; first compound 0.05 µM)?
**A.** 0.387

**Q.** And the relative viability (EPLC-272H; first compound 0.1581 µM)?
**A.** 0.224

**Q.** And the relative viability (EPLC-272H; first compound 0.5 µM)?
**A.** 0.275

**Q.** What about the relative viability (NCI-H1734; first compound 0.005 µM) of the same compound?
**A.** 0.24

**Q.** And the relative viability (NCI-H1734; first compound 0.01581 µM)?
**A.** 0.258

**Q.** What about the relative viability (NCI-H1734; first compound 0.05 µM) of the same compound?
**A.** 0.26

**Q.** What about the relative viability (NCI-H1734; first compound 0.1581 µM) of the same compound?
**A.** 0.275

**Q.** And the relative viability (NCI-H1734; first compound 0.5 µM)?
**A.** 0.252

**Q.** What about the relative viability (NCI-H661; first compound 0.005 µM) of the same compound?
**A.** 0.37

**Q.** And the relative viability (NCI-H661; first compound 0.01581 µM)?
**A.** 0.362

**Q.** What about the relative viability (NCI-H661; first compound 0.05 µM) of the same compound?
**A.** 0.359

**Q.** What about the relative viability (NCI-H661; first compound 0.1581 µM) of the same compound?
**A.** 0.363

**Q.** What about the relative viability (NCI-H661; first compound 0.5 µM) of the same compound?
**A.** 0.363
